# Test results from article PMC6171423, “Benzofuran–appended 4-aminoquinazoline hybrids as epidermal growth factor receptor tyrosine kinase inhibitors: synthesis, biological evaluation and molecular docking studies” (Journal of Enzyme Inhibition and Medicinal Chemistry, 2018).
# Like-named read-outs stand apart in the source and are kept apart here.
# How the values were obtained:
# [1] = tested on: Caco-2 cells; assay: Annexin V/PI apoptosis assay by flow cytometry, Caco-2; format: cell-based, human; details: 5 and 12.5 µM, 24 h
# Description: (§1) Apoptotic cells were quantified using flow cytometry. The C3A or Caco-2 cells were cultured in 24 well plates and each was then treated with compound 10d or 10j at concentrations 5, 12.5 and 25 µM against doxorubicin hydrochloride (0.20 µM) as a reference standard, respectively. After the cells were incubated for 24 h, both treated and untreated cells were harvested, washed two times with ice PBS and then adjusted at a density of 1 x 10^6 cells/sample. Cells were harvested and transferred into plastic flow tubes (BD Biosciences, South Africa). The cells were, in turn, stained with Annexin-V-FUOS staining kit (Roche, Mannheim, Germany) according to the manufacturer’s instructions. The cells were analyzed using Becton, Dickinson and Company FACS Accuri flow cytometer.
# (§2) We selected compounds 10d and 10j to evaluate whether they induce apoptosis in the C3A and Caco-2 cell lines against doxorubicin hydrochloride as a reference standard, respectively. The population of apoptotic cells was determined by means of Annexin-V and propium iodide (PI) double staining by flow cytometry, which is a useful tool for evaluation of molecular and morphological events that take place during cell death and cell proliferation. […]
# [2] = tested on: Human Caspase-3 (Asp175) activity in Caco-2 cells; assay: Caspase-3 colorimetric assay, Caco-2; format: cell-based; details: 24 h, Gefitinib as reference
# Description: (§3) Caspase-3 activity was detected by means of Caspase-3 Colorimetric Assay Kit (Abcam, Cambridge, MA, USA). The cells were cultured in 24 well plates and treated for 24 h. The cells were then washed with PBS buffer and lysed on ice. The experiments were carried out according to the manufacturer’s instructions. Optical density was measured at absorbance of 450 nm using the BioTek microplate reader. The concentration of active Caspase-3 (Asp 175) were measured in duplicates and interpolated from the active caspase-3 (Asp 175) standard curve and corrected for sample dilution.
# (§4) A major biochemical feature of apoptosis is the activation of caspases (caspase-2, -3, -6, -7, -8, -9, and -10), which play a central role in the morphological changes associated with apoptosis. Activation of caspase-3, for example, is critically important for the induction of apoptotic pathways. Consequently, we evaluated compounds 10d and 10j for potential to induce caspase-3 activation in C3A and Caco-2 cells using Gefitinib as a reference standard (Figure 4).
# [3] = tested on: human lung cancer (A549) cells; assay: cells; details: A549, 48 h, read-out: Cancer cells LC50 A549
# Description: (§5) The cytotoxic activities of the compounds were screened against the C3A/HepG2 human liver cells, human colorectal tumor (Caco-2) cells, the human lung carcinoma (A549) and the cervical cancer (HeLa) cells. The lethal concentration was determined using the 3–(4,5-dimethylthiazol)-2,5-diphenyl tetrazolium bromide (MTT) assay previously developed by Mosmann[20]. The cells were maintained in Dubelsco minimal essential medium (DMEM, Highveld Biological, South Africa) supplemented with 10% fetal calf serum (Adcock-Ingram, Midrand, South Africa) and sodium pyruvate for C3A liver cells. Cell suspensions were prepared from confluent monolayer cultures and plated at a density of 0.1 × 10^6 cells into each well of 96-well microtitre plates. For cell attachment, plates were incubated for 24 h at 37 °C in a 5% CO2 incubator prior to the exposure. The compounds were dissolved in DMSO (5 mg/mL) and appropriate dilutions were prepared, added to the wells and incubated for 48 h. Doxorubicin hydrochloride (Pfizer Laboratories, Sandton, South Africa) was used as a positive control while DMSO was the negative control. After incubation for 48 h, the wells were rinsed with 150 µL of phosphate buffered saline PBS (Sigma-Aldrich, GmBH, Schnelldorf, Germany) and 200 µL of fresh medium was dispensed into the wells. MTT was dissolved in PBS (30 µL) then added to each well and the contents were incubated for 4 h at 37 °C. The medium was removed and MTT formazan crystals were dissolved in 50 µL DMSO. The amount of MTT reduction was measured immediately by detecting the absorbance using a BioTek microplate reader (BioTek Synergy, Analytical and Diagnostic Products, Johannesburg, South Africa) at a wavelength of 570 nm. Each dilution of the test sample was assayed in quadruplicate and the experiments were repeated three times. The percentage of cell viability and the LC50 values for each compound tested were calculated as described before[10].
# [4] = tested on: colorectal adenocarcinoma (Caco-2) cells; assay: cells; details: Homo sapiens, Caco-2, 48 h, read-out: Cancer cells LC50 Caco-2
# Description: as §5
# [5] = tested on: hepatocellular carcinoma (C3A; HepG2/C3A) cells; assay: cells; details: Homo sapiens, 48 h
# Description: as §5
# [6] = tested on: cervical cancer (HeLa) cells; assay: cells; details: Homo sapiens, 48 h, read-out: Cancer cells LC50 HeLa
# Description: as §5
# [7] = molecular target: human EGFR (EGFR-TK) (Homo sapiens, UniProt P00533); assay: Inhibition of EGFR-TK (ELISA)
# [8] = tested on: hepatocellular carcinoma (C3A; HepG2/C3A) cells; details: human, 48 h
# Description: as §5
# [9] = tested on: C3A cells; assay: Annexin V/PI apoptosis assay by flow cytometry, C3A; format: cell-based, human; details: 5 and 12.5 µM, 24 h
# Description: as §1, §2
# [10] = tested on: Human Caspase-3 (Asp175) activity in C3A cells; assay: Caspase-3 colorimetric assay, C3A; format: cell-based; details: 24 h, Gefitinib as reference
# Description: as §3, §4
# [11] = read-out: Cancer cells LC50 C3A
# [12] = read-out: IC50 against EGFR-TK, ELISA, purified EGFR
# Chain of human EGFR (EGFR-TK) (P00533 25-1210): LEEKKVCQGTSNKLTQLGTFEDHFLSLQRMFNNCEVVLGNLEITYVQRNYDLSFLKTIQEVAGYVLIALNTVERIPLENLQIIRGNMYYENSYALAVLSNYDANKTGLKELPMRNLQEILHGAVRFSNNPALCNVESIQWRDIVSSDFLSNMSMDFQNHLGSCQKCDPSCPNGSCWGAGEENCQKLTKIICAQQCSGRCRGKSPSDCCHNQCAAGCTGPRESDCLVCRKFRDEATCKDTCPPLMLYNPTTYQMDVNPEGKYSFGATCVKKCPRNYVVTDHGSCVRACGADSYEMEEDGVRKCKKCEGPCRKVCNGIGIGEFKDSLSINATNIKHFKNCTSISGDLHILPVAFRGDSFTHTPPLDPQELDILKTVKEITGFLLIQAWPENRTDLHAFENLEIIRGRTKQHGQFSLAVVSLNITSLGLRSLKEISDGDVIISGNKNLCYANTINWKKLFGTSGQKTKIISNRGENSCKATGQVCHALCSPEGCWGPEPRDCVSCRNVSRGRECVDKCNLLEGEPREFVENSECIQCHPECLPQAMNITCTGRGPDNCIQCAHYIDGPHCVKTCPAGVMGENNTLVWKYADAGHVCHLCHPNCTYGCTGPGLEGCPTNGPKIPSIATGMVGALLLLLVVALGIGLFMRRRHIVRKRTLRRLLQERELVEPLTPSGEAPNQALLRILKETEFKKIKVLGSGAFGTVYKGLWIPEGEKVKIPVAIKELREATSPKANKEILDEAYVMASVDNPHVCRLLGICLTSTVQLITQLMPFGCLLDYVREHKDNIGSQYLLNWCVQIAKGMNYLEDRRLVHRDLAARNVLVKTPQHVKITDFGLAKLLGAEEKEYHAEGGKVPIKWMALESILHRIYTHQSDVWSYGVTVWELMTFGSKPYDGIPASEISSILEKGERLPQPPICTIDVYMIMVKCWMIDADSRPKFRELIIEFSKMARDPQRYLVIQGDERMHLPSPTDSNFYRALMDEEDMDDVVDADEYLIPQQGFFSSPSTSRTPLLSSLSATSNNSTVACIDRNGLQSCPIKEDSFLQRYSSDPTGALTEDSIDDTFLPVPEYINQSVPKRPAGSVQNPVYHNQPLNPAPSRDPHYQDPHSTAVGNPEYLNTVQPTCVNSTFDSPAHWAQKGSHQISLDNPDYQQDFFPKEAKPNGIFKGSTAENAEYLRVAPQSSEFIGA
Structure (SMILES),induction of apoptosis [1],caspase-3 activation [2],CC50 [3] [µM],CC50 [4] [µM],"CC50 [5, 11] [µM]",CC50 [6] [µM],"IC50 [7, 12] [µM]",IC50 [7] [µM],CC50 [8] [µM],"CC50 ([5]; read-out: Cancer cells LC50 C3A, MTT, 48 h, C3A) [µM]",induction of apoptosis [9],caspase-3 activation [10]
"FC(F)(F)Oc1ccc(-c2cc3cc(Br)cc(Nc4nc(-c5ccc(Cl)cc5)nc5ccc(Br)cc45)c3o2)cc1 [Compound 10j, 6-Bromo-N-(5-bromo-2–(4-(trifluoromethoxy)phenyl)benzofuran-7-yl)-2–(4-chlorophenyl) quinazoline-4-amine]",induced apoptosis,induce apoptosis through activation of caspase-3,47.4 ± 0.07,18.4 ± 0.07,> 100,28.1 ± 0.79,0.0615 ± 1e-05,–,–,–,–,–
"Fc1ccc(-c2nc(Nc3cc(Br)cc4cc(-c5ccc(OC(F)(F)F)cc5)oc34)c3cc(Br)ccc3n2)cc1 [Compound 10e, 6-Bromo-N-(5-bromo-2–(4-(trifluoromethoxy)phenyl)benzofuran-7-yl)-2–(4-fluorophenyl) quinazolin-4-amine]",–,–,97.6 ± 0.07,65.2 ± 0.1,> 100,23.4 ± 0.49,0.0311 ± 0.00012,–,–,–,–,–
"Fc1ccc(-c2nc(Nc3cc(Br)cc4cc(-c5ccc(F)cc5)oc34)c3cc(Br)ccc3n2)cc1 [Compound 10c, 6-Bromo-N-(5-bromo-2–(4-fluorophenyl)benzofuran-7-yl)-2–(4-fluorophenyl)quinazolin-4-amine]",–,–,52.6 ± 0.2,98.8 ± 0.02,> 100,11.4 ± 0.56,–,0.0522 ± 0.00018,–,–,–,–
"Clc1ccc(-c2nc(Nc3cc(Br)cc4cc(-c5cccc(Cl)c5)oc34)c3cc(Br)ccc3n2)cc1 [Compound 10i, 6-Bromo-N-(5-bromo-2–(3-chlorophenyl)benzofuran-7-yl)-2–(4-chlorophenyl)quinazolin-4-amine]",–,–,86.6 ± 0.16,33.5 ± 0.1,68.2 ± 0.02,75.1 ± 5.25,0.0902 ± 0.00034,–,–,–,–,–
"COc1cc2ncnc(Nc3ccc(F)c(Cl)c3)c2cc1OCCCN1CCOCC1 [Gefitinib, reference compound]",–,–,51.3 ± 0.17,–,–,98.8 ± 0.56,–,–,5 ± 0.04,5.01,–,–
"Fc1ccc(-c2cc3cc(Br)cc(Nc4nc(-c5ccc(Cl)cc5)nc5ccc(Br)cc45)c3o2)cc1 [Compound 10h, 6-Bromo-N-(5-bromo-2–(4-fluorophenyl)benzofuran-7-yl)-2–(4-chlorophenyl)quinazolin-4-amine]",–,–,74.1 ± 0.21,49.1 ± 0.01,> 100,28.6 ± 1.12,0.1257 ± 0.00052,–,–,–,–,–
"Fc1cccc(-c2cc3cc(Br)cc(Nc4nc(-c5ccc(Cl)cc5)nc5ccc(Br)cc45)c3o2)c1 [Compound 10g, 6-Bromo-N-(5-bromo-2–(3-fluorophenyl)benzofuran-7-yl)-2–(4-chlorophenyl)quinazolin-4-amine]",–,–,78.5 ± 0.15,94.4 ± 0.02,79.1 ± 0.01,53.5 ± 4.46,0.1329 ± 0.00055,–,–,–,–,–
"Clc1ccc(-c2nc(Nc3cc(Br)cc4cc(-c5ccccc5)oc34)c3cc(Br)ccc3n2)cc1 [Compound 10f, 6-Bromo-N-(5-bromo-2-phenylbenzofuran-7-yl)-2–(4-chlorophenyl)quinazolin-4-amine]",–,–,48 ± 0.1,75 ± 0.02,73.9 ± 0.02,15.4 ± 0.45,–,–,–,–,–,–
"Fc1ccc(-c2nc(Nc3cc(Br)cc4cc(-c5cccc(F)c5)oc34)c3cc(Br)ccc3n2)cc1 [Compound 10b, 6-Bromo-N-(5-bromo-2–(3-fluorophenyl)benzofuran-7-yl)-2–(4-fluorophenyl)quinazolin-4-amine]",–,–,54.3 ± 0.19,83.9 ± 0.07,90.1 ± 0.02,47 ± 0.38,0.1225 ± 0.0005,–,–,–,–,–
"Fc1ccc(-c2nc(Nc3cc(Br)cc4cc(-c5ccccc5)oc34)c3cc(Br)ccc3n2)cc1 [Compound 10a, 6-Bromo-N-(5-bromo-2-phenylbenzofuran-7-yl)-2–(4-fluorophenyl)quinazolin-4-amine]",–,–,64.7 ± 0.11,96.3 ± 0.1,81 ± 0.03,17.6 ± 0.39,–,0.1113 ± 0.00042,–,–,–,–
"Fc1ccc(-c2nc(Nc3cc(Br)cc4cc(-c5cccc(Cl)c5)oc34)c3cc(Br)ccc3n2)cc1 [Compound 10d, 6-Bromo-N-(5-bromo-2–(3-chlorophenyl)benzofuran-7-yl)-2–(4-fluorophenyl)quinazolin-4-amine]",–,–,65.1 ± 0.12,47.7 ± 0.01,9 ± 0.01,22.1 ± 1.1,0.0293 ± 2e-05,–,–,–,induced apoptosis,induce apoptosis through activation of caspase-3
